Legend:
[1] = biological target: T1, GDP loaded KRAS4b(1-169) H95C/C118S mutant (Homo sapiens, UniProt P01116, C118S/H95C); test: MALDI-TOF percentage labeling of C95, GDP-loaded protein; type: binding; conditions: for level of covalent labeling to C95 (percent of labeling), GDP, 3 h: 3 h incubation; for level of covalent labeling to C95 (percent of labeling), GDP, 6 h: 6 h incubation; for level of covalent labeling to C95 (percent of labeling), GDP, 24 h: 24 h incubation
T1 construct: loaded KRAS4b(1-169) H95C/C118S mutant
Procedure: (§1) Table 1 is a table summarizing levels of covalent labeling to C95 as analyzed by MALDI-TOF MS for a series of synthesized compounds. […] Both species, GDP or nonhydrolyzable analogue of GTP—GppNHp-loaded KRAS4b H95C/C118S, were then reacted with a panel of epoxides and analyzed by MALDI-TOF MS to assess level of covalent modification to C95 after 3 h, 6 h, or 24 h of incubation with the protein. All R isomers show enhanced activity compared to S isomers.
(§2) Example 18: Percentage Labeling Determination for Compounds Targeting KRAS4b Residue 95 by Matrix Assisted Laser Desorption Ionization-Time of Flight Mass Spectrometry (MALDI-TOF)
(§3) The assay uses four tool proteins: • Guanosine diphosphate (GDP) loaded KRAS4b(1-169) H95C/C118S mutant • 5′-Guanylyl imidodiphosphate (GppNHp) loaded KRAS4b(1-169) H95C/C118S mutant • GDP loaded KRAS4b(1-169) C118S mutant • GppNHp loaded KRAS4b(1-169) C118S mutant
(§4) 20 μM Solution of protein in 20 mM HEPES, 150 mM NaCl, 1 mM MgCl2, pH 7.3 buffer was prepared freshly before assay. 20 μl Aliquots of protein were dispensed on 384 well polypropylene plate, then tested compounds (0.8 μl, 10 mM in DMSO) were added to appropriate wells. For each reaction/assay three blank and three control samples were prepared by mixing 20 μl of protein solution with 0.8 μl DMSO or 10 mM standards (compounds 994566 and FB9). The wells content was carefully mixed by aspiration, then plate was sealed by adhesive cover, centrifuged at 2000 g for 1 minute and kept in dark at room temperature for 3, 6 (or 8) and 24 h.
(§5) Before each assay MALDI target (Bruker MPT 384 ground steel BC) was pre-treated by pipetting on each spot 1 μl of saturated sinapinic acid in acetonitrile (ACN).
(§6) After 24 h reaction, 2 μl of reaction mixtures were pipetted out into 20 μl MALDI matrix solution (saturated solution of sinapinic acid in 1:1 ACN:water solution containing 0.75% trifluoroacetic acid (TFA)) deposited on 384 well polypropylene plate. Resulting solution was mixed by aspiration, centrifuged at 2000 g for 1 minute, then 2 μl aliquots were dispensed on pre-treated MALDI target using Beckman Coulter Biomek FX^P 96/Span-8 Laboratory Automation Workstation. Finally, the MALDI target was dried under mild vacuum to produce spots with fine crystalline structure.
MALDI-TOF measurements were performed on Bruker Daltonics ultraflex III TOF-TOF mass spectrometer using linear mode and mass range from 5 to 45 kDa. Detector gain was set to ×9 (1734 V), sample rate to 1 GS/s, smart beam parameter set: 3_medium was used, and the laser frequency was 66.7 Hz. Spectra were automatically collected using custom AutoXecute method. Laser power was auto-adjusted using fuzzy control. The peak selection range was set to be between 19000 and 20200 Da. Peak evaluation uses half width parameter set to be smaller than 30 Da. Fuzzy control used Proteins/Oligonucleotides protocol with minimum half width ⅙ times above threshold. Up to 1500 shots were collected in 500 shot steps. Dynamic termination was implemented to finish data collection when peak intensity was reaching value of 1200 [a.u.].
Spectra were smoothed by SavitzkyGolay algorithm using 5 m/z width and three cycles. Centroid peak detection algorithm was used with signal to noise threshold set to 4, relative intensity threshold 2%, minimum intensity threshold 20 [a.u.], peak width 10 m/z and TopHat baseline subtraction. Peak intensity and area under the peak were evaluated and recorded for all peaks between 19248 Da and 20500 Da for H95/C118 mutant and 19285 Da and 20500 Da for C118 mutant respectively.
Percent of labeling was calculated using followed equation:
[formula] Similar results were obtained when peak area instead of peak height was used for calculations, however peak height method produced more reliable data in case of poor quality spectra.

[2] = biological target: T2, GppNHp loaded KRAS4b(1-169) H95C/C118S mutant (Homo sapiens, UniProt P01116, C118S/H95C); test: MALDI-TOF percentage labeling of C95, GppNHp-loaded protein; type: binding; conditions: for level of covalent labeling to C95 (percent of labeling), GppNHp, 3 h: 3 h incubation; for level of covalent labeling to C95 (percent of labeling), GppNHp, 6 h: 6 h incubation; for level of covalent labeling to C95 (percent of labeling), GppNHp, 24 h: 24 h incubation
T2 construct: loaded KRAS4b(1-169) H95C/C118S mutant
Procedure: as §1
150 to 300 μM solution of GDP loaded protein in KRAS buffer was prepared (20 mM HEPES, 150 mM NaCl, 1 mM MgCl2, 0.05 mM TCEP, pH 7.3). To this was added vigorously 1500×molar excess of 1 M ammonium sulfate in KRAS buffer, and the combination mixed gently by inverting tube. Next was prepared 250 mM solution of GppNHp (150 molar excess of GppNHp to protein; keep it on ice). To the protein was pipetted 10% of prepared GppNHp solution, then suspension of alkaline phosphatase from calf intestine on agarose was added (Sigma-Aldrich, P0726) to have 2 units of enzyme per each mg of protein. The reaction mixture was incubated at room temperature, rotating end-over for 1 h 30 min. The alkaline phosphatase was removed on agarose beads by filtering solution to a new vial using Millex-GP syringe filter. Remaining solution of GppNHp was added and incubated for additional 45 min. At the end of the exchange the protein was filtered again, placed on ice, and purified on NGC medium-pressure chromatography system (Bio-Rad). Five in-lane connected desalting columns (5×GE Healthcare HiTrap Desalting columns 5 ml, 17-1408-01) were used with isocratic elution of KRAS buffer at 4 ml/min. The protein elution was monitored at 280 nm. The concentration of final protein was evaluated by NanoDrop 2000 spectrophotometer (Thermo Fisher) using molar attenuation coefficient ε=19685 l·mol^−1·cm^−1. The quality of the protein was confirmed by MALDI and the exchange rate was assessed by HPLC based assay.
as §2, §3, §4, §5, §6
MALDI-TOF measurements were performed on Bruker Daltonics ultraflex III TOF-TOF mass spectrometer using linear mode and mass range from 5 to 45 kDa. […]

Compound	level of covalent labeling to C95 (percent of labeling), GDP, 3 h [1]	level of covalent labeling to C95 (percent of labeling), GDP, 6 h [1]	level of covalent labeling to C95 (percent of labeling), GDP, 24 h [1]	level of covalent labeling to C95 (percent of labeling), GppNHp, 3 h [2]	level of covalent labeling to C95 (percent of labeling), GppNHp, 6 h [2]	level of covalent labeling to C95 (percent of labeling), GppNHp, 24 h [2]
Cc1ccc(S(=O)(=O)c2cn(CC3OC3(C)C)nn2)cc1 (stereo not drawn)	0%	0%	0%	0%	0%	0%
Cn1nc(C(=O)NCc2cn(C[C@H]3CO3)nn2)c2ccccc21	0%	0%	0%	0%	0%	0%
O=C(NCc1cn(C[C@@H]2CO2)nn1)c1c[nH]c2ccccc12	7%	18%	72%	2%	4%	25%
O=C(NCc1cn(C[C@H]2CO2)nn1)c1c[nH]c2ccccc12	0%	5%	31%	0%	2%	11%
Cn1nc(C(=O)NCc2cn(C[C@@H]3CO3)nn2)c2cc(Br)ccc21	23%	52%	96%	0%	4%	19%
CC(=O)Oc1ccccc1C(=O)NCc1cn(C[C@@H]2CO2)nn1	5%	12%	45%	2%	3%	14%
Cn1nc(C(=O)NCc2cn(C[C@H]3CO3)nn2)c2cc(Br)ccc21	3%	10%	49%	0%	2%	10%
CC(C)Cc1ccc(C(C)C(=O)NCc2cn(C[C@@H]3CO3)nn2)cc1 (stereo partly drawn)	36%	73%	98%	0%	2%	17%
Cn1cc(C(=O)NCc2cn(C[C@@H]3CO3)nn2)c2cc(Br)ccc21	19%	42%	91%	3%	4%	22%
COc1ccc(Cl)cc1C(=O)N[C@H]1COC1=O	87%	91%	89%	76%	81%	78%
CC(C)C[C@H](NC(=O)c1cn(C)c2ccccc12)C(=O)[C@@]1(C)CO1	0%	0%	0%	0%	0%	0%
CC(C)C[C@H](NC(=O)c1cn(C)c2ccc(Br)cc12)C(=O)[C@@]1(C)CO1	0%	0%	0%	0%	0%	0%
COc1ccc(Cl)cc1C(=O)N1CCCC(C(=O)N[C@@H](CC(C)C)C(=O)[C@@]2(C)CO2)C1 (stereo partly drawn)	0%	0%	0%	0%	0%	0%

From US11358940B2, “K-Ras modulators” (THE REGENTS OF THE UNIVERSITY OF CALIFORNIA, priority 2017, dated 2022)
